± gives the expanded uncertainty stated by the source.
Key:
[1] = refractive index (Na D-line) (dimensionless); conditions: 298.15 K; 101.33 kPa; Liquid; Standard Abbe refractometry
[2] = 298.15 K, 101.33 kPa, Liquid

refractive index [1] | mass density [2] | SMILES | mass density ([2]; Vibrating tube method)
1.42403 ± 0.00068 | 773.76 ± 0.52 kg/m3 | C1CCCCC1 [cyclohexane] | 
1.42011 ± 0.0007 | 745.32 ± 0.91 kg/m3 | CCCCCCCCCCCC [dodecane] | 
1.52581 ± 0.0007 | 1058.5 ± 0.55 kg/m3 | c1ccsc1 [thiophene] | 

SMILES | refractive index [1] | mass density [2] | mass density ([2]; Vibrating tube method)
CCCCCCCCn1cc[n+](C)c1.O=S(=O)([N-]S(=O)(=O)C(F)(F)F)C(F)(F)F | 1.43331 ± 0.0012 |  | 1320.76 ± 9.5 kg/m3
